Molecules are shown by their SMILES.

One series relates to MCF-7 cells. As to the kind of experiment: Viability of MCF-7 breast cancer cells. Type of series: cell-based, human. On the procedure:
To quantify cell death, around the time when significant and characteristic morphological changes took place, cells were pulse-labeled for 10 minutes with [^3H]thymidine to measure DNA activity as described elsewhere [Tomono, M. and Kiss, Z. (1995), “Ethanol enhances the stimulatory effects of insulin and insulin-like growth factor-I on DNA synthesis in NIH 3T3 fibroblasts,” Biochem. Biophys. Res. Commun. 208, 63-67]. Also, cells were collected as suspensions using trypsin, an established method in cell biology, followed by re-plating of cells in fresh tissue culture medium. If no viable cells were obtained after one week in culture, it meant that the cells at the time of re-plating were dead. Survival values obtained with untreated cells were considered 100%. For the determination of relative number of viable cells after treatments, in most cases the MTT assay was used. This calorimetric assay is based on the ability of living cells, but not dead cells, to reduce 3-(4,5-dimethyl thiazol-2-yl)-2,5-diphenyltetrazolium bromide [Carmichael, J, De Graff, W. G., Gazdar, A. F., Minna, J. D. and Mitchell, J. B. (1987), “Evaluation of tetrazolium-based semi-automated calorimetric assay: Assessment of chemosensitivity testing,” Cancer Res. 47, 936-942]. For this assay, cells were plated in 96-well plates, and the MTT assay was performed both in untreated and treated cell cultures. The MTT assay also was performed at the start of treatments to allow assessment of proliferation rates in the control and treated cell cultures.
About 50% confluent cultures of MCF-7 cells, cultured in 12-well plates in Dulbecco's modified Eagle's medium (DMEM) supplemented with 10% FBS, were either untreated (FIG. 3A), or were treated with 100 μM CCDTHT (CCompound3) for 72 hours (FIG. 3B). […] This experiment was repeated three times with similar results. In some experiments, cells from the CCDTHT-treated cultures were seeded into 96-well plates, and the MTT assay was performed 96 hours later to test for viable cells.
The NIH 3T3 (normal) mouse fibroblast, A431 human epidermoid adenocarcinoma, and MCF-7 human breast cancer cells were cultured in DMEM medium containing 10% FBS. The MEL-28 human melanoma cells were cultured in MEM medium containing 10% FBS. The HT-29 human colon adenocarcinoma cells were cultured in McCoy's 5a medium containing 10% FBS. The A549 human lung carcinoma cells were maintained in Ham's F12K medium containing 10% FBS. Cells were seeded into 96-well plates and treated at ˜70-90% confluency. Two hours before treatments the medium was changed for fresh 10% serum medium, and then the cells were incubated for 72 hours in the presence of 0-200 μM of CCompound1 (●) or CCompound3 (CCDTHT) (▴), as indicated. The MTT assay was used to determine cell viability after treatments. The values, shown in FIGS. 5A-5F and expressed as percent decrease in viability compared to the untreated control cells, are the mean±std. dev. of 8 incubations in one experiment. Similar results were obtained in another experiment.
NIH 3T3, AN3CA, HT-29, MEL-28, and MCF-7 cells were cultured as described earlier. Cells were seeded into 96-well plates; when cells were ˜80-90% confluent, the medium was changed for fresh 10% serum-containing medium, followed by incubations for 72 hours in the absence (□) or presence of 100 μM CCDTHT ? , 2 mM ethanolamine (Etn) ? , or 100 μM CCDTHT+2 mM Etn (▪). The MTT assay was used to determine cell viability. […]

The nature of series [1]: Body weight of animals in the MXT tumor model. It is filed as in vivo, mouse. The note with it: Example 31, CisPt 2 mg/kg i.p. and/or CCDTHT 4.6 mg/kg s.c. The method, then: The mouse mammary MXT tumor was developed as described above. […] CCDTHT and CisPt were administered subcutaneously and intraperitoneally, respectively, once daily for 10 days, including a 2-day rest period after 5 days of treatment (i.e., the last treatment was on day 19). Each group consisted of 7 animals, and the mean values±std. dev. for tumor volumes and body weight are shown in TABLE 4 and TABLE 5, respectively.
The mouse mammary MXT tumor model was developed and treated as described above. […] CisPt and PALP were administered intraperitoneally and subcutaneously, respectively, seven times on every second day (i.e., treatments were terminated on day 21). Each group included 7 animals; the mean values±std. dev. for tumor volumes and body weight are shown in TABLE 6 and TABLE 7, respectively.
The mouse mammary MXT tumor model was developed and treated as described above. […] In each group 7 mice were included. The mean values±std. dev. for tumor volumes and body weights are shown in TABLE 9 and TABLE 10, respectively.

A further series deals with CCF-STTG1 cells. As to the kind of experiment: Viability of CCF-STTG1 astrocytoma cells (MTT assay). It is filed as cell-based, human. Conditions: 100-200 μM, 72 hours. The method, then: To quantify cell death, around the time when significant and characteristic morphological changes took place, cells were pulse-labeled for 10 minutes with [^3H]thymidine to measure DNA activity as described elsewhere [Tomono, M. and Kiss, Z. (1995), “Ethanol enhances the stimulatory effects of insulin and insulin-like growth factor-I on DNA synthesis in NIH 3T3 fibroblasts,” Biochem. Biophys. Res. Commun. 208, 63-67]. Also, cells were collected as suspensions using trypsin, an established method in cell biology, followed by re-plating of cells in fresh tissue culture medium. If no viable cells were obtained after one week in culture, it meant that the cells at the time of re-plating were dead. Survival values obtained with untreated cells were considered 100%. For the determination of relative number of viable cells after treatments, in most cases the MTT assay was used. This calorimetric assay is based on the ability of living cells, but not dead cells, to reduce 3-(4,5-dimethyl thiazol-2-yl)-2,5-diphenyltetrazolium bromide [Carmichael, J, De Graff, W. G., Gazdar, A. F., Minna, J. D. and Mitchell, J. B. (1987), “Evaluation of tetrazolium-based semi-automated calorimetric assay: Assessment of chemosensitivity testing,” Cancer Res. 47, 936-942]. For this assay, cells were plated in 96-well plates, and the MTT assay was performed both in untreated and treated cell cultures. […]
Background: Formazan colour is commonly taken as a measure of viable cells.

`CC[N+](C)(CC)CCOCc1ccc2sc3ccccc3c(=O)c2c1.[I-]` [CCDTHT, N,N-diethyl-N-methyl-2-[(9-oxo-9H-thioxanthen-2-yl)methoxy]-ethanaminium iodide]: in the series on MCF-7 cells (0-200 μM, 72 hours, MTT), the “decrease in viability, MCF-7” value is “similarly large effects”. Besides, the “viable cells by MTT after re-seeding treated MCF-7 cells” value with MCF-7 cells (100 μM 72 hours, re-seeded, MTT 96 hours later) is “did not detect viable cells”. In addition, the “morphology / cell death, MCF-7” value with MCF-7 cells (100 μM, 72 hours, 12-well plates) is given as “practically all cells rounded up”. In series [1] (once daily), the “Body weight, Day 14” value amounted to 25.1 ± 0.84 g; the “Body weight, Day 18” value is given as 26.9 ± 0.93 g; the “Body weight, Day 21” value is 28.8 ± 0.91 g. For the same compound, the “Body weight, Day 7” value in series [1] (start of treatment) is listed as 22.8 ± 0.82 g. Besides, in the series on CCF-STTG1 cells, the “number of viable CCF-STTG1 cells” value is recorded as “sharply decrease”.
